In assay [1] the test system is T cell line with MGAR APC. Briefly: Antigen Processing Independent Presentation System (APIPS) assay, fresh or fixed MGAR APC. Format: cell-based, DR2 mice. Particulars: DR2 T cell line, IFN-γ, 24 h. As for the experimental part: FIG. 4: Identification of apitopes within HIP-9FL. DR2 mice were immunized with HIP-9FL-KKK and a T cell line was established. Ten days after immunization the LN and spleens were harvested and cultured with different concentrations of peptide (0.1-1-2.5 and 5 μg/ml); 2×10^6 cells/ml APCs+1×10^6 cells/ml CD4 T cells per well. At day 7 the cells were re-stimulated with the same concentrations of peptide. On day 21 an APIPS test was done using commercial APC (MGAR). After 24 h, antigen-induced T cell activation was measured by IFN-γ ELISA and shown as OD values. The graph represents the mean of duplicate measurements±SEM. LN, lymph nodes; APC, Antigen presenting cell; APIPS, Antigen Processing Independent Presentation System.
Antigen-specific clones or TCL were tested for their reactivity to the peptides, presented by fixed or not fixed (fresh) cells (VAVY or MGAR) (=APCs). 5×10^4 cells from the individual clones were cultured with 10 μg/ml peptide and 5×10^4 fixed or fresh APCs. In the case of TCL, 5×10^4 cells were cultured with 10 μg/ml and 25 μg/ml peptide and 2.5×10^4 fixed or fresh APCs. To fixate APCs, cells were incubated with 0.5% paraformaldehyde (Merck, Darmstadt, Germany) (pH7) for 5 min at room temperature (RT). The fixation reaction was stopped by adding 0.4M glycine (Sigma-Aldrich) and washing the cells in RPMI-10% FCS. Additionally, reactivity towards human SAg protein (QBiologicals, Eurofins Amatsigroup, Ghent, Belgium) was measured to identify cryptic epitopes. After 24 h or 48 h, antigen-induced IFN-γ or IL-2 production (respectively) was measured by ELISA (R&D Systems, Abingdon, UK).
DR3tg or DR2tg mice were immunised subcutaneously in the base of the tail with 50 μg peptide emulsified in CFA (peptide/CFA). Ten days after immunisation, draining lymph nodes (LN) and spleens were harvested. […] At day 7, TCL cells were counted and cultured with fresh APC, peptides and IL-2, all at the same concentrations as above. […]

Assay [2] concerns the target T1, MHC II molecules present on dendritic cells (DC) (Homo sapiens, UniProt P01903+P01911).
T1 construct: from tissue; host or cells: CD11c+ dendritic cells from spleens of DR2tg mice (DRA*0101 and DRB1*1501 cDNAs under a mouse MHCII promoter, no mouse MHC class II)
The assay is described as follows: In vivo presentation experiment, DR2tg mice. Particulars: 100 μg peptide s.c., CD11c+ cells harvested after 2 hours, co-culture 48 hours. An excerpt: FIG. 14: In vivo presentation protocol. Mice are immunized with peptide/CFA and a T cell line is established. For this, ten days after immunization the LN and spleens are harvested and cultured with different concentrations of peptide; 2×10^6 cells/ml APC+1×10^6 cells/ml CD4^+ cells per well. At day 7 the cells are re-stimulated with fresh APC and the same concentrations of peptide. After 14 to 21 days, CD4^+ cells are isolated from these cultures by magnetic bead isolation. These CD4^+ cells are co-cultured with CD11c^+ (dendritic) cells isolated by magnetic bead isolation from spleens of mice s.c. injected with peptide 2 hours before. Control mice receive a s.c. injection of PBS. After 48 hours, supernatant is collected and cytokine response (IFN-γ) is measured. […]
FIG. 17: In vivo presentation of HIP-9FL nested peptides in DR2 mice. […] After 48 hours, supernatant was collected and IFN-γ production was measured by ELISA. […]
DR3tg or DR2tg mice were injected with 100 μg of peptide in 100 μl PBS subcutaneously (s.c.) in the flank. […] After 48 hours, supernatant of these co-cultures was collected and CD4^+ T cell activation was analysed by IFN-γ ELISA (R&D Systems, Abingdon, UK). In a parallel experiment, CD4^+ T cell responses towards peptide added in vitro were assessed to make sure the T cells recognize the peptides presented by the CD11c^+ cells.

Ends that are not written are not given here.

T1 sequence (P01903 26-254): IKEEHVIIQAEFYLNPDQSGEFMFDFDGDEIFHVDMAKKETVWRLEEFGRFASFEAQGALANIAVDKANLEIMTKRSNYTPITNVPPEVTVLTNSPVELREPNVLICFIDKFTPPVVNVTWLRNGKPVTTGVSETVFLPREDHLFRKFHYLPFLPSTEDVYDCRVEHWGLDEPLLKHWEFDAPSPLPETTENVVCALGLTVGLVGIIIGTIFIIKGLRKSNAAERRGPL
T1 sequence (P01911 30-266): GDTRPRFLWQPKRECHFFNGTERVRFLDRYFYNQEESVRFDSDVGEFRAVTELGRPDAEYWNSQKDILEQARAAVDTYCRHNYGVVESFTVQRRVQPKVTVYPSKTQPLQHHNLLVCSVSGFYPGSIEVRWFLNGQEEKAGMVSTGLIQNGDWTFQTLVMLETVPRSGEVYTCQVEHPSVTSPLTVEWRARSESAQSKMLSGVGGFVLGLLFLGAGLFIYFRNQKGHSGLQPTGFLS

Turning to “KKKAFVEQVANVVLKKK-NH2 [HIP-9K1-KKK, KKKAFVEQVANVVLKKK]”, in assay [1], the “behaves as apitope (response to peptide presented by fresh or fixed APC)” value is recorded as “behave as apitopes”. In assay [2], the “picked up and presented by MHC II on dendritic cells to peptide-specific T cells (IFN-γ production)” value is on record as “presented by DC to T cells”.
